What was measured:
Aβ42-infused mice [1] = assay: Contextual fear conditioning in Aβ42-infused mice; format: in vivo, mouse; settings: 5 mg/Kg, i.p.
panel of 158 GPCRs = assay: Millipore GPCR Profiler cell-based functional screen (calcium flux FLIPR)
Source text: Compounds were screened in vivo using a standard dose escalation screen in mice coupled with clinical observation and testing based on the SHIRPA mouse phenotype assay paradigm (Mammalian Genome 8, 711-719 SHIRPA (1997); herein incorporated by reference in its entirety). To obtain insight into the potential for off-target activity with the largest known family of small molecule drug targets, G-protein coupled receptors (GPCRs), a cell-based functional screen of the final title compounds was done. The Millipore® GPCR Profiler screen employs the ChemiScreen GPCR stable cell line technology used for real-time calcium flux FLIPR assays on a panel of 158 GPCRs. The NCBI Entrez identifier for each GPCR is provided at the vendor site (www.millipore.com). Follow-up validation of any initial hits as being true positives or negatives was done as described above for protein kinases by testing the concentration dependence of any cellular effects.

[2] = tested on: LPS-induced IL-1β in brain cortex; assay: In vivo LPS-induced brain cortex IL-1β; set-up: species or system mouse; settings: oral administration, 20 mg/Kg, 6 hrs after LPS
[3] = tested on: murine microglial BV-2 cell line; assay: cells; format: cell-based
[4] = tested on: Aβ42-treated hippocampal slices; assay: LTP in hippocampal slices treated with oligomeric Aβ42; set-up: species or system mouse; settings: 10 μM, 200 nM Aβ42
Aβ42-infused mice [5] = assay: 2-day radial arm water maze (RAWM) in Aβ42-infused mice; format: in vivo, mouse; settings: 5 mg/Kg, i.p.
>291 protein kinases = assay: Millipore Profiler large-scale kinome screen
APP/PS1 mice [6] = assay: LTP in APP/PS1 mice; format: in vivo, mouse; settings: 2.5 mg/kg, daily, p.o., from 2 months until 3-4 months of age
[7] = tested on: APP/PS1 transgenic and APP/PS1 knock-in mice; assay: β-amyloid plaque count, 6E10 immunohistochemistry; format: in vivo, mouse
Procedure: Histopathology. Immunohistochemistry was performed using the Ventana BenchMark Ultra automated platform. Tissue sections were first deparaffinized using Ventana's “ez-prep” solution. Antigen retrieval was performed by treatment at 95° C. for 54 minutes using Ventana's CC1 (pH 7.3) solution, followed by treatment with 0.3% hydrogen peroxide to block endogenous peroxidase. Tissue sections were then incubated in protein-free block (Biocare's background sniper) for 15 min to inhibit nonspecific binding. Primary antibody (anti-Aβ 6E10 at 1:400, Biocare Medical) was incubated for 32 min at room temperature. […] A board-certified neuropathologist, who was blinded to the treatment versus the control group, analyzed a sagittal section from each mouse and counted the total number of well-formed β-amyloid plaques.
MW-150 treatment improves cognitive performance in the absence of effect on Aβ plaque burden. […] (FIG. 26C) Quantification by a board-certified neuropathologist blinded to the treatment groups was done by analysis of a brain sagittal section from each mouse in which the total number of well-formed β-amyloid plaques in the entire section were counted. […] (FIG. 26D) In a separate experiment with APP/PS1 knock-in (KI) mice, Aβ plaques were quantified from KI mice treated with MW-150 or vehicle.

APP/PS1 mice [8] = assay: Fear conditioning (contextual and cued) in APP/PS1 mice; settings: 2.5 mg/kg, daily, p.o., from 2 months of age
APP/PS1 mice [9] = assay: RAWM in APP/PS1 mice; settings: 2.5 mg/kg, daily, p.o., from 2 months of age
[10] = Repeat dosing, observation of adverse events; format: in vivo, mouse; settings: aged or diseased animals
Source text: Further, the results in a battery of behavioral tests are consistent with a true hippocampus-dependent mechanism of action in attenuation of memory deficits. […] The selective improvement in cognitive behavior was also brought about with no effect on amyloid plaque load (Wilcock, D. M., and Colton, C. A. (2009) Immunotherapy, vascular pathology and microhemorrhages in transgenic mice. CNS Neurol. Disord.: Drug Targets 8, 50-64, herein incorporated by reference in its entirety).

[11] = tested on: synaptic depression induced by OGD; assay: Oxygen glucose deprivation (OGD) in entorhinal slices, field potentials; settings: 10 μM, 10 min OGD
Procedure: Slice preparation. Animals were anesthetized using urethane (20% solution, 1 mL/100 g body weight) via intraperitoneal injection and then decapitated after disappearance of the tail pinch reflex. After brain removal, horizontal sections (400 μm in thickness), containing the entorhinal area, were made on a Vibratome. All steps were performed in ice-cold oxygenated ACSF solution. Before recording, slices were stored for at least 1 h in a recovery chamber containing oxygenated ACSF solution at room temperature. For electrophysiology, slices were perfused at a rate of 2.5-3 mL/min with oxygenated ACSF at 33±1° C. […] The amplitude of FP was monitored every 20 s and averaged every three responses by online data acquisition software. Effects on synaptic function were evaluated either during ischemia (as the average of FPs amplitude during the last 3 min of 10 min OGD application) or as the recovery of FPs calculated as the averaged relative amplitude of FPs respect to the baseline values after reintroduction of regular ACSF (from 41st to 50th min after the end of OGD). […]

Row | SMILES | contextual fear memory deficit in Aβ42-infused mice (Aβ42-infused mice [1]) | GPCR screen result (panel of 158 GPCRs) | LPS-induced IL-1β levels in brain cortex [2] | IL-1β production with diverse TLR ligands ([3]; BV-2 cells, TLR2, TLR4, TLR7/8, TLR9 ligands) | IC50 ([3]; Mus musculus, LPS-stimulated BV-2 cells, 18 hrs, read-out: IC50 using inhibition of IL-1β overproduction as end point) | LTP deficit in Aβ42-treated slices [4] | reference memory deficit (RAWM) in Aβ42-infused mice (Aβ42-infused mice [5]) | large scale kinase screen result (>291 protein kinases) | LTP defect in APP/PS1 mice (APP/PS1 mice [6]) | amyloid plaque burden [7] | contextual fear memory defect in APP/PS1 mice (APP/PS1 mice [8]) | spatial/reference memory defect (RAWM) in APP/PS1 mice (APP/PS1 mice [9]) | adverse events with repeat dosing [10] | synaptic depression induced by OGD [11]
1 | CN(C)c1cc(-c2ccncc2)c(-c2ccc3ccccc3c2)nn1 [MW-108 (2)] | prevented by MW-108 (2) administration | negative | restored IL-1β levels in the brain cortex back towards control | also seen in BV-2 cells stimulated with diverse TLR ligands | 610 ± 20 nM | ameliorated the Aβ-induced electrophysiological deficit | rescued the memory defects | negative |  |  |  |  |  | 
2 | CN1CCN(c2cc(-c3ccncc3)c(-c3ccc4ccccc4c3)nn2)CC1 [27 (MW-150), 6-(4-methylpiperazine-1-yl)-3-(naphthalen-2-yl)-4-(pyridin-4-yl)pyridazine] |  |  |  |  |  |  |  |  | rescue defects in LTP | no effects of MW-150 treatment on the amyloid plaque burden | rescue the defect in contextual fear learning | rescue defects in spatial memory | did not bring about any observed adverse events | ameliorated

Source: patent US11149020B2, “MAP kinase modulators and uses thereof” (The Trustees of Columbia University in the City of New York, priority 2013, dated 2021)
